Data from PMC12498411, “Antidepressant-like Properties of a Selenium-Containing Pyridinium Salt Explored through In Vitro, In Vivo, and In Silico Approaches” (ACS Chemical Neuroscience, 2025).
Where two headings read alike, the source gives them in different places.

Legend:
[1] = target: T1, MAO-A (Mus musculus, UniProt Q64133); assay: Cerebral MAO-A activity, mitochondria-enriched mouse brain fraction (kynuramine, fluorimetric); format: biochemical; conditions: for Concentrations with significant inhibition of MAO-A activity: tested 25–200 μM, Dunnett vs control
T1 construct: Mitochondria-enriched brain preparations were obtained in accordance with established methodology outlined in literature; from tissue; host or cells: mouse brain, mitochondria-enriched fraction
T1 sequence (Q64133 1-526): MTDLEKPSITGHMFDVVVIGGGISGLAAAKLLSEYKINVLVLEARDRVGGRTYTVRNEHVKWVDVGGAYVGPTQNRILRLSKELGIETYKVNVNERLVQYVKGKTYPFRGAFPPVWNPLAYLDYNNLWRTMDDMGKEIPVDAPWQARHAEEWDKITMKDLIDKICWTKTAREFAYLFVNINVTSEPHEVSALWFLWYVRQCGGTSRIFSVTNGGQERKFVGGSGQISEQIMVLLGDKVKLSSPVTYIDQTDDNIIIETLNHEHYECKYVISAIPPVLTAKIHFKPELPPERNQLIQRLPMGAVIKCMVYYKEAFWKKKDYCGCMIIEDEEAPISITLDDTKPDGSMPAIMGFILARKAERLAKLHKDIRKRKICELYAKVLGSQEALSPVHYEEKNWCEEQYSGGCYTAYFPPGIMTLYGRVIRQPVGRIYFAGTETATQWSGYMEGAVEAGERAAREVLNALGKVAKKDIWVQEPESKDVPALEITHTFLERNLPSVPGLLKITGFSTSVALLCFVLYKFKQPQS
Protocol: Mitochondria-enriched brain preparations were obtained in accordance with established methodology outlined in literature. The homogenate was prepared using the mouse brain tissue and a homogenization buffer (Na2PO4/KH2PO4/sucrose) at a ratio of 1:4 (w/v). The homogenate was centrifuged at 900g at 4 °C for 5 min. The resulting supernatant was separated and subjected to centrifugation at 12,500g for 15 min. The resulting pellet was resuspended in the homogenization buffer and subjected to a further round of centrifugation under identical conditions. Finally, the mitochondrial pellet obtained was reconstituted in an assay buffer solution (Na2PO4/KH2PO4/KCl). Protein concentration was estimated using the Bradford method and standardized as 1 mg/mL for the experiments.
MAO activity was assessed following the method outlined by Krajl, with some modifications by Matsumoto. Briefly, a 100 μL aliquot of the mitochondria-rich fraction was incubated at 37 °C for 5 min with specific MAO inhibitors: clorgyline (250 nM, a MAO-A inhibitor), or pargyline (250 nM, a MAO-B inhibitor). Then, 10 μL of each compound was introduced at varying concentrations (25–200 μM). Water (10 μL) was used in the control tubes. Afterward, the substrate, 20 μL of kynuramine dihydrobromide, was added to achieve a final concentration of 90 μM for MAO-A and 60 μM for MAO-B. The samples were incubated at 37 °C for 30 min. The reaction was halted by the addition of 300 μL of 10% trichloroacetic acid (TCA). After centrifuging at 16,000g for 15 min, an aliquot of 800 μL of the supernatant was mixed with 1 mL of 1 M sodium hydroxide (NaOH). The samples were measured using a fluorimeter with excitation at 315 nm and emission at 380 nm.

[2] = tested on: protein carbonylation; assay: Protein carbonylation assay, SNP-induced, brain homogenate; format: biochemical, mouse; conditions: for IC50: mouse brain homogenate, SNP-induced, 25–200 μM; for Concentrations effective in reducing SNP-induced protein carbonylation: tested 25–200 μM
Protocol: Brains from mice of both sexes were used for in vitro assays, each performed in duplicate across three independent experiments (n = 3), conducted on different days.
The evaluation of protein carbonylation was performed according to a previously established protocol, using freshly prepared brain homogenate diluted at a 1:8 ratio in Tris-HCl buffer. Test compounds (10 μL), ranging in concentrations from 25 to 200 μM, were individually introduced into separate test tubes. Trolox (100 μM) served as the standard antioxidant. The diluted brain homogenate (940 μL) was then added to all tubes, followed by SNP (1 mM) as the inducing oxidative agent (50 μL). The tubes were promptly incubated at 37 °C for 2 h. Following incubation, 2 M HCl was added to blank tubes (200 μL), while 10 mM 2,4-dinitrophenyl-hydrazine (DNPH) solution was added to test tubes (200 μL). The mixture was incubated for 1 h in darkness at room temperature, with intermittent stirring every 15 min to facilitate the color reaction. Subsequently, 500 μL of denaturation buffer, 1.5 mL of ethanol, and 1.5 mL of hexane were added to all tubes, which were then vigorously shaken for 40 s. The tubes were then centrifuged at 900g for 15 min, and the supernatant was carefully decanted. The resulting pellet was washed twice with 1 mL of ethanol/ethyl acetate solution (1:1). After allowing the pellet to dry air for 2 min, it was resuspended in 1 mL of denaturation buffer and subjected to spectrophotometric analysis at 370 nm. The findings were quantified as nmol carbonyl per gram of tissue.

[3] = tested on: male Swiss mice; assay: Tail suspension test (TST); format: in vivo, mouse
Protocol: A behavioral screening was conducted using the three salts to determine their potential antidepressant-like actions (n = 7–9 mice/group).
A dosage of 5 mg/kg (intragastric route, i.g., by gavage) was administered to all groups receiving the salts. […] The TST was conducted 30 min following drug administration, with the OFT being performed 4 min prior to the TST.
Following the selection of the most promising salt during screening (Compound 3B), an analysis of the compound’s time-response curve was conducted in the mouse TST. For this purpose, the animals were divided into five groups: (I) control (water; i.g.), (II) the group receiving compound 3B 15 min prior to TST, (III) the group receiving compound 3B 30 min before TST, (IV) the group receiving compound 3B 60 min before TST, and (V) the group receiving compound 3B 120 min before TST. The dosage of salt was standardized at 5 mg/kg (i.g). OFT was conducted 4 min prior to the TST.
After choosing a suitable preadministration time, the dose–response curve of the compound at this fixed time was analyzed. The animals were categorized into […]: I) a control group (administered water; i.g.) and groups II, III, IV and V) receiving compound 3B at doses of 0.5 mg/kg, 1 mg/kg, 2.5 mg/kg, and 5 mg/kg (i.g.), respectively. […] Thirty minutes postadministration, the animals underwent the TST. Four minutes prior to the TST, they underwent the OFT.
This test aims to assess depressive-like behavior and antidepressant-like action of therapies by measuring immobility. […] The test was conducted using a mouse suspension box made of wood, measuring 50 cm × 21 cm × 21 cm, designed to prevent any visual or physical interaction among the animals. A suspension bar was positioned atop the box, and the mouse’s tail was affixed to the bar using adhesive tape. The test duration was 6 min, during which the animal’s latency to the first immobility episode and the total duration of immobility (sec) were assessed.

[4] = salts 5 mg/kg i.g., fluoxetine 20 mg/kg i.p., 30 min before test

| SMILES | IC50 [1] [µM] | Concentrations with significant inhibition of MAO-A activity [1] | IC50 [2] [µM] | Concentrations effective in reducing SNP-induced protein carbonylation [2] | Minimum effective dose for antidepressant-like action ([3]; TST, i.g., 30 min) [mg/kg] | TST latency time to first immobility episode, screening [3, 4] | TST total immobility time, screening [3, 4] | Cohen-D effect size in TST ([3]; screening, 5 mg/kg i.g., 30 min) | IC50 ([1]; mouse brain mitochondria-rich fraction, 25–200 μM, kynuramine 90 μM, read-out: IC50 for MAO-A) [µM] |
| --- | --- | --- | --- | --- | --- | --- | --- | --- | --- |
| O=C(C[n+]1ccccc1C[Se]c1ccccc1)c1ccccc1.[Br-] [Compound 3A, 1-(2-oxo-2-phenylethyl)-2-((phenylselanyl)methyl)pyridin-1-ium bromide] | 238 | ≥ 50 µM | 130 | all concentrations |  |  |  |  |  |
| Cc1ccc(C(=O)C[n+]2ccccc2C[Se]c2ccccc2)cc1 [Compound 3B, 1-(2-oxo-2-(p-tolyl)ethyl)-2-((phenylselanyl)methyl)pyridin-1-ium bromide] |  | all concentrations tested | 230 | 200 µM | 1 | significantly increased latency time | shorter total immobility times | > 1.77 | 73.9 |
